Measured values: patent publication US9302967B2, “Substituted cathechols as inhibitors of IL-4 and IL-5 for the treatment of bronchial asthma” (Council of Scientific & Industrial Research, priority 2011, dated 2016)

Tests used:
IL-4 = test: PHA-stimulated human PBMC, IL-4 in supernatant by Cytometric Bead Array; type: cell-based; conditions: PHA 10 μg/ml, read-out: IC50 inhibitory activity, stimulation-induced IL-4
Method: (§1) Normal human peripheral blood mononuclear cells (PBMC) were stimulated with phytohemagglutinin (PHA) 10 μg/ml in the presence and absence of varying concentrations of compounds of formula I and II. Culture supernatants were harvested and IIL-4 and IL-5 cytokines were quantitated by Cytometric Bead Array (CBA™) kit (Becton Dickinson, USA) following manufacturers instructions using a Flow Cytometer (BD LSR, Becton Dickinson) and CBA™ analysis software (Becton Dickinson).

IL-5 = test: PHA-stimulated human PBMC, IL-5 in supernatant by Cytometric Bead Array; type: cell-based; conditions: Homo sapiens, PHA 10 μg/ml, read-out: IC50 inhibitory activity, stimulation-induced IL-5
Method: as §1

| SMILES | IC50 (IL-4) | IC50 (IL-5) | melting point |
| --- | --- | --- | --- |
| C=CCc1ccc(OC(C)=O)c(OC(C)=O)c1 [Compound 7, 4-allyl-1,2-phenylene diacetate] | 4 µM | 4 µM |  |
| C=CCc1cccc(OC(C)=O)c1OC(C)=O [Compound 19, 3-allyl-1,2-phenylene diacetate] | 30 µM | 35 µM | 58 to 60 °C |
| C=CCc1cccc(O)c1O [Compound 16, 3-allyl-benzene-1,2-diol] | 30 µM | 30 µM |  |
